Measured values taken from article PMC9728921, “Characterization of a KDM5 small molecule inhibitor with antiviral activity against hepatitis B virus” (PLOS ONE, 2022).

Key:
Format in all cases: biochemical
SIRT-1 = biological target: T1, SIRT-1 (Homo sapiens, UniProt Q96EB6); test: SIRT-1 histone deacetylase assay (AlphaLISA); conditions: enzyme conc. 5 nM
T1 construct: 193-741; purchased BPS
Description: The assay plates were read on an Enspire plate reader (PerkinElmer) using a standard AlphaLISA program.
(§1) Data was analyzed using GraphPad Prism 6.0 (La Jolla, CA). […] IC50 values were calculated as an average of at least two independent experiments.

KDM5B = biological target: T2, KDM5B (Homo sapiens, UniProt Q9UGL1); test: KDM5B enzymatic assay (CisBio HTRF)
T2 construct: purchased Reaction Biology Corp (assay run there as a contract service)
T2 sequence (Q9UGL1 whole entry): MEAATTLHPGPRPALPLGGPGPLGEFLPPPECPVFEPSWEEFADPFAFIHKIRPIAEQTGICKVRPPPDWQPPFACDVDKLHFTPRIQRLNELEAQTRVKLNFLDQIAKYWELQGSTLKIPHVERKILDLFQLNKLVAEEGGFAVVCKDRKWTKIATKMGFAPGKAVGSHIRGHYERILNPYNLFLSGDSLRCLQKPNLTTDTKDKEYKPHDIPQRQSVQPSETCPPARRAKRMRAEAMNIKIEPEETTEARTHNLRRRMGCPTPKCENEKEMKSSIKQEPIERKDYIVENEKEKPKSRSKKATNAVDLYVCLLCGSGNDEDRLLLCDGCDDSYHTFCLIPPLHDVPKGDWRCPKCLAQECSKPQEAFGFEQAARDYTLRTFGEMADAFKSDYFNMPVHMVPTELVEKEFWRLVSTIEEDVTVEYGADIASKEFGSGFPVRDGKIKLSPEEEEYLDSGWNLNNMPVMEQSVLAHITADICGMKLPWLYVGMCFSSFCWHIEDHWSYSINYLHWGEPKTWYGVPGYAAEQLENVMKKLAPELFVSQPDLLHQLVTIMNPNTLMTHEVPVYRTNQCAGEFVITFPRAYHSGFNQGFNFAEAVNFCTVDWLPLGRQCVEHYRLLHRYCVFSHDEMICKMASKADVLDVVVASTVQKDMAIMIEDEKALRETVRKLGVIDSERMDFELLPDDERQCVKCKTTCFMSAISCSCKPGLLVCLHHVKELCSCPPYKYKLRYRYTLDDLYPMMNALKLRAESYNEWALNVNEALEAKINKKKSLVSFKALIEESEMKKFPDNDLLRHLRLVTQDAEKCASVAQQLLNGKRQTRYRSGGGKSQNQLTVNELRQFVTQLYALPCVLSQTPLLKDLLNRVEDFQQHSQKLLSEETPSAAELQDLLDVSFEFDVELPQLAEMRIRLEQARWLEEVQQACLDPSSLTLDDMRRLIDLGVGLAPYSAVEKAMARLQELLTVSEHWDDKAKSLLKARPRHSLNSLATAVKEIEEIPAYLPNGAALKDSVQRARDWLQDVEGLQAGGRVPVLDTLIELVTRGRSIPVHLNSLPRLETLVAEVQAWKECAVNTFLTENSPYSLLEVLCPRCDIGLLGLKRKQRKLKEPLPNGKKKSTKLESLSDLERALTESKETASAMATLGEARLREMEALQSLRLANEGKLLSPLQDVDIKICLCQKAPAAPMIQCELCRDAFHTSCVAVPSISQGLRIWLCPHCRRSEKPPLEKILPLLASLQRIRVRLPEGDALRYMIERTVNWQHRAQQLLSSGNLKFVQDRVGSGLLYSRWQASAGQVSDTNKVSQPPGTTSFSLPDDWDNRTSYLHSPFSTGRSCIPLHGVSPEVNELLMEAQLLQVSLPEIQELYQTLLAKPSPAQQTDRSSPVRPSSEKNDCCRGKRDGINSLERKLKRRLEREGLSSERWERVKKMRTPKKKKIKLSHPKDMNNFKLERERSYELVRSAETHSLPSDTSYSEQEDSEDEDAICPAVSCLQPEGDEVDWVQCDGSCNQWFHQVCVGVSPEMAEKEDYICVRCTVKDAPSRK
Description: (§2) KDM5A and 5B were tested using CisBio HTRF assay platform by Reaction Biology Corp (Malvern, PA). All concentrations are final unless noted otherwise. Inhibitors were pre-incubated with 2.5 nM KDM5A or 1.2 nM KDM5B in a 5 μL reaction mixture containing 50 mM HEPES (pH 7.5), 50 mM NaCl, 0.01% Tween 20, 0.01% BSA for 15 min temperature. The reaction was initiated by addition of 5 μL of 50 nM Biotin-H3K4me3 and incubated with gentle shaking for 45 min at RT. The reaction was quenched with 10 mM EDTA and 200 mM potassium fluoride. Upon addition of Eu-Antibody and Streptavidine-XL665, the mixture was incubated for 2 hours in the dark. The fluorescence resonance energy transfer was measured using an excitation wavelength of 320 nm and emission wavelength of 665 nm on an Envision plate reader (Perkin Elmer).
as §1

SETDB1 = biological target: T3, SETDB1 (Homo sapiens, UniProt Q15047); test: Histone methyltransferase enzymatic assay, SETDB1; conditions: enzyme conc. 100 nM
T3 construct: 510-1290
Description: (§3) Histone methyltransferase assays were performed in 96-well half-area optiplates (PerkinElmer) at room temperature. All concentrations are final unless noted otherwise. Compounds were serially diluted in DMSO and the final DMSO concentration was 1%. A 24 μL reaction mixture contained compound, enzyme, 200 nM of nucleosome or histone substrate, 400 nM ^3H-SAM (83.1 Ci/mmol), 50 mM Tris-HCl (pH 8.0), 50 mM NaCl, 5 mM MgCl2, 1 mM DTT, and 0.01% Tween-20. The plate was sealed, mixed on a Titramax plate shaker at 1200 rpm for 30 sec, and incubated at room temperature for 60 min. The reaction was quenched by addition of 24 μL mixture containing 5 mg/mL PVT-PEI beads and 300 μM unlabeled SAM in water. The plate was sealed, mixed as previously noted, incubated overnight, and read on a TopCount plate reader (PerkinElmer).
as §1

KDM5D = biological target: T4, KDM5D (Homo sapiens, UniProt Q9BY66); test: KDM5D enzymatic assay (LANCE TR-FRET); conditions: IC50 of KDM5D over KDM5A
T4 construct: purchased Eurofins Cerep SA (assay run there as a contract service)
Description: KDM5D was tested using a LANCE TR-FRET assay by Eurofins Cerep SA (France). All concentrations were final unless noted otherwise. Inhibitors were added to a mixture containing 45 mM HEPES/Tris-HCl (pH 7.5), 5 μM ferrous ammonium sulfate, 100 μM ascorbic acid, 10 μM 2-oxoglutarate, 0.01% Tween 20, 0.01% BSA, and 10 ng of enzyme, followed by addition of 100 nM biotin-H3K4me3 substrate. The 10 μL reaction mixture was incubated for 10 min at room temperature and quenched through the addition of 1 mM EDTA to reach a final concentration of 0.33 mM EDTA. After 5 min, the Eu-labeled anti-methyl histone H3K4me1-2 antibody and the Ulight streptavidin were added, and the mixture was incubated for 60 min. The fluorescence resonance energy transfer was measured using an excitation wavelength of 320 nm and emission wavelengths of 620 nm and 665 nm on an Envision plate reader (Perkin Elmer).
as §1

KDM5A = biological target: T5, KDM5A (Homo sapiens, UniProt P29375); test: KDM5A enzymatic assay (CisBio HTRF)
T5 construct: purchased Reaction Biology Corp (assay run there as a contract service)
T5 sequence (P29375 whole entry): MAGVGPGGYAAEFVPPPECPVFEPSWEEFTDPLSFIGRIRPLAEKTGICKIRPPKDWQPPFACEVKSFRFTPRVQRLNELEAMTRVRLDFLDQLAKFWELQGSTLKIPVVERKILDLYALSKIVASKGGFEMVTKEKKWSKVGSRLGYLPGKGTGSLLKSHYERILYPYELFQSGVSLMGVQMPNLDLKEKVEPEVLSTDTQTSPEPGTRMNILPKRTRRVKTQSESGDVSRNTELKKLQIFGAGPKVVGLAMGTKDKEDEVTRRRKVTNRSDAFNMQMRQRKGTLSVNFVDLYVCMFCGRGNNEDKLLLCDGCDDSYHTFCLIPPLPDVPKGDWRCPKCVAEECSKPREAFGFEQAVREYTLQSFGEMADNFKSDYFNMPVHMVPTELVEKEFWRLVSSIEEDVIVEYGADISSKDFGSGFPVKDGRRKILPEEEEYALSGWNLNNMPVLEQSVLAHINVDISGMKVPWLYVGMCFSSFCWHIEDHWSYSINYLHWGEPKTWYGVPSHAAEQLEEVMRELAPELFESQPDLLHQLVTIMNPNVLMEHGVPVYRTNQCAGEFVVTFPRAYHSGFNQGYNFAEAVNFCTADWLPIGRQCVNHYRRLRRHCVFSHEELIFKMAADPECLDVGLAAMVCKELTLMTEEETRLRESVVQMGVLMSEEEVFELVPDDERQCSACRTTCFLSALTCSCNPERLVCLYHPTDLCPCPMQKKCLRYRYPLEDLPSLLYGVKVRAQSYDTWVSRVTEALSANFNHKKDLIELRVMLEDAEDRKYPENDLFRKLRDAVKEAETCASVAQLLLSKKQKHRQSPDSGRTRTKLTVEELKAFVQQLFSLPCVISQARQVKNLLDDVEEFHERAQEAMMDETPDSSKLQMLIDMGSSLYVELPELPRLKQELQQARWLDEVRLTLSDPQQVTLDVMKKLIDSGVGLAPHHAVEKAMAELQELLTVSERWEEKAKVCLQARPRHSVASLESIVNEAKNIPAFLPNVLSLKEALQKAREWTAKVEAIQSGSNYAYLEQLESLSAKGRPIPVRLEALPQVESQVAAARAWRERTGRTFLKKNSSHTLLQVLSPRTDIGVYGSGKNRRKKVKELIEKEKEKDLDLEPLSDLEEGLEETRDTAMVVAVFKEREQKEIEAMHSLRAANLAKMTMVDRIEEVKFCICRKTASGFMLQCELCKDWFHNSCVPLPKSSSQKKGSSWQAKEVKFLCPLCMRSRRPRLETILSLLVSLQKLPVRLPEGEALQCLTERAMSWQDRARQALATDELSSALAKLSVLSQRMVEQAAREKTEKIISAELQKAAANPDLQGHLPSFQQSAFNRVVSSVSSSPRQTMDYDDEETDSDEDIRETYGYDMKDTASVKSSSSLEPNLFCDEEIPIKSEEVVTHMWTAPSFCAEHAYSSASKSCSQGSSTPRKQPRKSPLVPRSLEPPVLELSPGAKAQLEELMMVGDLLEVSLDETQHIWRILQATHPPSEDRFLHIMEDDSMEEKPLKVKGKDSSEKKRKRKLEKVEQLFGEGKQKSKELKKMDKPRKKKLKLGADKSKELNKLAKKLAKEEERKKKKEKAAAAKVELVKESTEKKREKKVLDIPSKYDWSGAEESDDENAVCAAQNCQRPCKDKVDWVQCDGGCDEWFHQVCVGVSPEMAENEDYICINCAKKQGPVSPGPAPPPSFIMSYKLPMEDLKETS
Description: as §2, §1

KDM3B = KDM3B (Homo sapiens, UniProt Q7LBC6); test: KDM3B enzymatic assay (AlphaLISA)
Description: (§4) The following assay protocol was used for all histone demethylases tested except KDM1A, KDM5A, B, and D, which are described below. Compounds were serially diluted into a 384-well Alpha plate as a DMSO solution and mixed with 5 μL reaction buffer (buffer A) containing 50 mM HEPES (pH 7.0), 0.1% BSA, and 0.003% Tween-20. The enzyme of interest was pre-incubated with 15 μM of Fe^2+ for 10 min (except 30 min for KDM2B) in reaction buffer A. 5 μL of the enzyme mixture was added to each of the compound-containing wells and incubated for 10 min. The reaction was started by addition of a 5 μL mixture containing 300 nM peptide substrate, 75 μM L-ascorbic acid, and 30 μM α-ketoglutarate in buffer A. This final 15 μL of reaction mixture was incubated for 20 min for KDM5B and 1 hour for the other KDM enzymes. The reaction was quenched with 10 μL of diluted AlphaLISA Acceptor beads (1:400) in Epigenetics Buffer and incubated for 60 min. The Donor beads were diluted 1:400 into Epigenetics Buffer in the dark and 10 μL of this was added to each well and incubated for another 60 min in the dark. The assay plates were read on an Enspire plate reader (PerkinElmer) using a standard AlphaLISA program.
as §1

KDM3A = KDM3A (Homo sapiens, UniProt Q9Y4C1); test: KDM3A enzymatic assay (AlphaLISA)
KDM3A, sequence (Q9Y4C1 whole entry): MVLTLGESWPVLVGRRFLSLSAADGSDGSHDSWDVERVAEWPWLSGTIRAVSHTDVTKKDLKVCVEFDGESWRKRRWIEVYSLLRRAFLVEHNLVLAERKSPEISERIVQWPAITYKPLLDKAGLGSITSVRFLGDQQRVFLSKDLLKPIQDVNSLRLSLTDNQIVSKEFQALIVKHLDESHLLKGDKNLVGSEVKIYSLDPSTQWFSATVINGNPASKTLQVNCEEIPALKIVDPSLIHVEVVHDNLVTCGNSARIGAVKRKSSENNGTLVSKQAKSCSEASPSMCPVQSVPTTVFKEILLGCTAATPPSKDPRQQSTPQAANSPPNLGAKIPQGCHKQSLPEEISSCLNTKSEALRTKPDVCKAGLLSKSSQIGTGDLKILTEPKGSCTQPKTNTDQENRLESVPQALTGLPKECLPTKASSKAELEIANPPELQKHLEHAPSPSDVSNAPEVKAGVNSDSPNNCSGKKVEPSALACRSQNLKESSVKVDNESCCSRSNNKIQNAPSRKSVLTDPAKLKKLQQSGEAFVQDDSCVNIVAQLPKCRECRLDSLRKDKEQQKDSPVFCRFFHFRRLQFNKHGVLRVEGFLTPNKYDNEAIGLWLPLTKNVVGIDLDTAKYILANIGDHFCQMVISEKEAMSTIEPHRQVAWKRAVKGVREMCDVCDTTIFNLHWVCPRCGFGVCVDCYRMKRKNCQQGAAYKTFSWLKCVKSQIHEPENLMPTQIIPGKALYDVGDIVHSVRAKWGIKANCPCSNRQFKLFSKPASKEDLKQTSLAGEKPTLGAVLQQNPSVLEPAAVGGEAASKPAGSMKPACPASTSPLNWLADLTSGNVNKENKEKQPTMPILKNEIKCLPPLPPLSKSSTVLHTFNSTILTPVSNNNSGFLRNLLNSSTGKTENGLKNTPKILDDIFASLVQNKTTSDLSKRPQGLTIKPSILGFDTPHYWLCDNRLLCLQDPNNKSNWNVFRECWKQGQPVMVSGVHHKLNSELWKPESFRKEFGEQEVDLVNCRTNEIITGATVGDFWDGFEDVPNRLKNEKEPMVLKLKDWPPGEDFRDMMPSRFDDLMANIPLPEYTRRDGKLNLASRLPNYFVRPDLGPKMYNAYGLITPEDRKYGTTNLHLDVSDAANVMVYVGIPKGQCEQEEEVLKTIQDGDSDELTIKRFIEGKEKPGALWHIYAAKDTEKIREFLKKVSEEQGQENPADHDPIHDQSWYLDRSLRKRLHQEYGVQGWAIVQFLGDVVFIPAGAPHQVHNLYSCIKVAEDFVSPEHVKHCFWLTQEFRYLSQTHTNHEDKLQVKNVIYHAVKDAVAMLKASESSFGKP
Description: as §4, §1

EZH2/EED/SUZ12 = biological target: T6, EZH2/EED/SUZ12 (Homo sapiens, UniProt O75530+Q15022+Q15910); test: Histone methyltransferase enzymatic assay, EZH2/EED/SUZ12; conditions: enzyme conc. 100 nM
T6 construct: 2-746/2-441/2-739; purchased BPS
Description: as §3, §1

KDM5C = KDM5C (Homo sapiens, UniProt P41229); test: KDM5C enzymatic assay (AlphaLISA)
Description: as §4, §1

NSD1 = biological target: T7, NSD1 (Homo sapiens, UniProt Q96L73); test: Histone methyltransferase enzymatic assay, NSD1; conditions: enzyme conc. 50 nM
T7 construct: 1538-2696; purchased RBC (read as Reaction Biology Corporation, named)
Description: as §3, §1

T1 sequence (Q96EB6 193-741): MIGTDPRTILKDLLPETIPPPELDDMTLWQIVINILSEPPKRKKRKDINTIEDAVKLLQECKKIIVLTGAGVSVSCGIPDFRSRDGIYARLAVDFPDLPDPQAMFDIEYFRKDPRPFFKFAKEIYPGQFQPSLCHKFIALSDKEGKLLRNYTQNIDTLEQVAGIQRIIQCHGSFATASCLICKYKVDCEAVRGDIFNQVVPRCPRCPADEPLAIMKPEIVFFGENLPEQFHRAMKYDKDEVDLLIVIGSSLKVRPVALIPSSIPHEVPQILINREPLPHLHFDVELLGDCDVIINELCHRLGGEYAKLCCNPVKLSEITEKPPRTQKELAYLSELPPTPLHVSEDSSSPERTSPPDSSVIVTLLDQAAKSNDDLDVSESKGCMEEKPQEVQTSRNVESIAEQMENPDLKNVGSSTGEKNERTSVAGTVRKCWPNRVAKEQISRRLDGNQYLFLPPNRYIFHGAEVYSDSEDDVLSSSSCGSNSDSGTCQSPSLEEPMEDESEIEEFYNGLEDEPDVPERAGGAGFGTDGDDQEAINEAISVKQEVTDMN

IC50 (SIRT-1): > 100 µM
Fold Selectivity Compared to KDM5A (KDM5B; IC50 of KDM5B over KDM5A): 1 fold
IC50 (KDM5B; enzyme concentration 1.2 nM, IC50 lower than enzyme concentration, likely underestimates potency): 0.38 nM
IC50 (SETDB1): > 100 µM
Fold Selectivity Compared to KDM5A (KDM5D): 183 fold
Fold Selectivity Compared to KDM5A (KDM5A; IC50 of KDM5A over KDM5A): 1 fold
IC50 (KDM5A; enzyme concentration 2.5 nM, IC50 lower than enzyme concentration, likely underestimates potency): 0.36 nM
Fold Selectivity Compared to KDM5A (KDM3B; IC50 of KDM3B over KDM5A): > 27,800 fold
IC50 (KDM3B; enzyme concentration 0.1 nM): > 10 µM
Fold Selectivity Compared to KDM5A (KDM3A; IC50 of KDM3A over KDM5A): > 4,720 fold
IC50 (KDM3A; enzyme concentration 0.3 nM): 1700 nM
IC50 (EZH2/EED/SUZ12): > 100 µM
Fold Selectivity Compared to KDM5A (KDM5C; IC50 of KDM5C over KDM5A): 10 fold
IC50 (KDM5C; enzyme concentration 1 nM): 3.7 nM
IC50 (NSD1): > 100 µM
Compound: CCN(CCN(C)C)C(=O)CNCc1cc(C(=O)O)ccn1 [GS-080]
